Assay [1] relates to cows with reproductive disorders. The conditions noted are these: vitamin A 50000 IU per day, alone or with carotene 200 mg per day; cited from earlier work.
For another assay, the system named is sheep. The conditions noted are these: 50000 IU per day, continuously fed by 50 days; cited from earlier work.
In another assay the test system is gilts. Description: Extra vitamin A fed to gilts prior to estrus initiation. The assay is classed as in vivo. The following applies: extra vitamin A in addition to the diet, no lactic acid. An excerpt: Therefore, the inventors speculated that the lactic acid may be beneficial to the puberty onset and estrus of the gilts.

vitamin A: in assay [1], the conception rate entry is on record as “significantly increased”, the estrogen level result is “significantly increased”, the estrus ate result was “not significantly affected” and the follicle size entry is “not significantly affected”. In the assay with sheep, the estrus rate result is given as “no significantly affected” and the lambing rate result is recorded as “significantly increased”. Also, the “delayed estrus initiation or estrus disorder” value in the assay on gilts is listed as “improve the delayed estrus initiation or estrus disorder in gilts to some extent”.
